# In patent publication US20120028358A1, “METHOD FOR INCREASING RETROVIRAL INFECTIVITY” (priority 2010, published 2012):
# Tests used:
# progesterone receptor = biological target: T1, progesterone receptor (Homo sapiens, UniProt P06401); conditions: cited from earlier work
# T1 sequence (P06401 1-933): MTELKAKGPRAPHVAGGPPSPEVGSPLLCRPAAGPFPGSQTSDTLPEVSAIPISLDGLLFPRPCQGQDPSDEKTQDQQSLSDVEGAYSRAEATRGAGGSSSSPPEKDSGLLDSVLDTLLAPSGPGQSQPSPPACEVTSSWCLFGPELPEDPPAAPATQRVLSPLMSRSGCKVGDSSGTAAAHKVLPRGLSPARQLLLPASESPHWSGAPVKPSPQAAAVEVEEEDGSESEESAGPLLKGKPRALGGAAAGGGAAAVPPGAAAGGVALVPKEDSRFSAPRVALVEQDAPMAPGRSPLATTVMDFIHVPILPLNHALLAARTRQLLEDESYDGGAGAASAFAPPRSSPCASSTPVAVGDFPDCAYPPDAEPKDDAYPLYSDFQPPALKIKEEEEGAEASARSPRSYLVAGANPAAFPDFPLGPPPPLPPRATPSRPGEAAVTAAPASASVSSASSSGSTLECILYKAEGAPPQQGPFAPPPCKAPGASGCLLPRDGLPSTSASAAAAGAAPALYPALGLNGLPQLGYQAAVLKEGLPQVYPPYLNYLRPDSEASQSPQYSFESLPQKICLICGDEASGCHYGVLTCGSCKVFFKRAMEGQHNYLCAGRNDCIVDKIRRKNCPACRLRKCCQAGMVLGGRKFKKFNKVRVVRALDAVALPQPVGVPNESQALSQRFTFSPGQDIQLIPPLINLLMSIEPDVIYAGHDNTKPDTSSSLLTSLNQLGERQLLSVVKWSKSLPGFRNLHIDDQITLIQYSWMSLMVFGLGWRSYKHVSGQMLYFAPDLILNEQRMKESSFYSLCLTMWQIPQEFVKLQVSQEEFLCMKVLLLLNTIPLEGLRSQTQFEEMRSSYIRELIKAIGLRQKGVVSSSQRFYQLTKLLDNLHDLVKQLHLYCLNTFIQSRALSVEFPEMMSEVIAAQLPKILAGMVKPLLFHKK
# rat PMVEC = assay: Gamma-retroviral infection efficiency of PMVEC (percent fluorescent cells by FACS); type: cell-based; conditions: for Retroviral infectivity versus control: increasing concentrations, Org 34517 0.1-30 μmol/L
# Protocol: Cell cultures: Phoenix Retroviral Expression System ecotropic and amphotropic packaging cells were purchased from Orbigen, Inc. (San Diego, Calif.). […] Rat pulmonary microvascular endothelial cells (PMVEC), were obtained from our cell culture core at the University of South Alabama (King J, et al. Structural and functional characteristics of lung macro and microvascular endothelial phenotypes. Microvascular Res. 2004, March, 67(2). 139-151). Human glioblastoma cells (U87MG), and human mammary carcinoma cells (T47D) were obtained from ATCC. All cells were cultured in DMEM, 10% FBS, 2 mmol L-Glutamine and used for experiments at passages 4-9. All cells were grown in humidified incubators at 37° C. in 5% CO2. Cells were harvested by 0.05% trypsin/0.53 mM EDTA digestion, washed, re-suspended in cultured medium and analyzed directly by FACScan in the University of South Alabama Flow Cytometry Core. For cell cycle analysis cellular DNA was stained with […] of propridium iodide for 20 minutes as described elsewhere (48) and then analyzed by FACScan.
# Vectors and delivery systems: pBMN-GFP (Orbigen, Inc., San Diego, Calif.), a retroviral vector that expresses GFP driven by the MMLV's promoter in Phoenix and other cells was used. In some experiments Murine Stem Cell Virus (MSCV) expressing mCherry and the hybrid retroviral vector Friend Murine Embryonic-stem cell Virus (FMEV) [for Friend Mink Cell Focus-forming (FMCF)/Murine Embryonic Stem cell Virus (MESV)](31) expressing DsRed2 were used in addition to MMLV. Two lentiviral vectors pLemiR (Open Biosystems, Huntsville, Ala.) and pLVX-DsRed-Monomer-C1 (Clontech Laboratories, Inc., Mountain View, Calif.) harboring turboRFP and DsRed as reporters were also used for comparison to gamma-retroviruses. Packaging cells were transfected with retroviral vectors using FuGENE 6 reagent following the manufacturer's instructions. For virus propagation, packaging cells were cultured in growth medium for 12-18 hours. Virus was collected with cultured medium, filtered, supplemented with hexadimethrine bromide (polybrene) to a final concentration of 4 μg/ml and applied directly to target cells.
# Gamma-retroviral backbones containing genes encoding fluorescent proteins as reporters were propagated in Phoenix ecotropic packaging cells. Viral-conditioned supernatant was collected and applied to target cells (rat pulmonary microvascular endothelial cells, PMVEC).
# glucocorticoid receptor = biological target: T2, glucocorticoid receptor (Homo sapiens, UniProt P04150); conditions: cited from earlier work
# T2 sequence (P04150 1-777): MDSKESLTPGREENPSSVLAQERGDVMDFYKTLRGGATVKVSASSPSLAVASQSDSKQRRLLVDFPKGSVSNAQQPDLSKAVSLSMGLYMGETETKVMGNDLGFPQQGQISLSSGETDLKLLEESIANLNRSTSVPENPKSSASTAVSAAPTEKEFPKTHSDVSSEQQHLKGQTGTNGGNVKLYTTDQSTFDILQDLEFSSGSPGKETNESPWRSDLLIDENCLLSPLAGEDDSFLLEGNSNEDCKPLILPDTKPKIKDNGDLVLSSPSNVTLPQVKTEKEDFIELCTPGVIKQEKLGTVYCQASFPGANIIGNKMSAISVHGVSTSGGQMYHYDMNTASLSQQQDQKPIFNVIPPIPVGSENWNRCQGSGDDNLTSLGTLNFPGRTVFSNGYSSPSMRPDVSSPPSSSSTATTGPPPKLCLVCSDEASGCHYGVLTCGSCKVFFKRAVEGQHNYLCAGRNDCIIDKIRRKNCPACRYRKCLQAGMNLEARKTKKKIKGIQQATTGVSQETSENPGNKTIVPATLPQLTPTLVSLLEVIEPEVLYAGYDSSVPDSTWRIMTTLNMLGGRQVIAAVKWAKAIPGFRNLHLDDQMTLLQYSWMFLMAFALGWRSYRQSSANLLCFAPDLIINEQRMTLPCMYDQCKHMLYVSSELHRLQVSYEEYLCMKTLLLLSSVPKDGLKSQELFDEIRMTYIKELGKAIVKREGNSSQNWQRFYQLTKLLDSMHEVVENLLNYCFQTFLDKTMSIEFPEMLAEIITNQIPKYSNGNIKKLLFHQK
# Phoenix cells and PMVEC = assay: Cell growth and survival of packaging and target cells
# [1] = system: rat pulmonary microvascular endothelial cells (PMVEC); assay: Percent GFP-positive (infected) target cells after conditioned medium from Phoenix cells; type: cell-based; conditions: conditioned medium from Phoenix cells grown with dexamethasone, plateau at 10 nmol
Structure (SMILES),IC50 (progesterone receptor),Retroviral infectivity versus control (rat PMVEC),IC50 (glucocorticoid receptor),Potency in increasing retroviral infectivity relative to mifepristone (rat PMVEC),"Cell growth (Phoenix cells and PMVEC; over 7 days, retrovirus producing or target cells (data not shown))",Adverse effects on cell growth or survival (Phoenix cells and PMVEC; packaging or target cells),Percentage of GFP-positive (infected) PMVEC [1]
"C=C1OC(CC)=NC12CCC1C3CCC4=CC(=O)CCC4=C3C(c3ccc(C(C)=O)cc3)CC12C (centres unmarked) [7453-102, 11b-[4-(acetyl)phenyl)-4′,5′-dihydro-2′-ethyl-5′-methylenespiro[estra-4,9-dien-17b,4′-oxazole]-3-one]",0.34 nM,no effect,–,–,–,–,–
CC#C[C@]1(O)CC[C@H]2[C@@H]3CCC4=CC(=O)CCC4=C3[C@@H](c3ccc4c(c3)OCO4)C[C@@]21C [Org 34517],–,significantly increased,17.9 nM,less potent than mifepristone,–,–,–
"C[C@@H]1C[C@H]2[C@@H]3CCC4=CC(=O)C=C[C@]4(C)[C@@]3(F)[C@@H](O)C[C@]2(C)[C@@]1(O)C(=O)CO [dexamethasone, Dexamethasone]",–,–,–,–,no effect,did not cause any evident adverse effects,45%
